US20040058914A1, “Combination drugs” (priority 2000, published 2004)

Key:
[1] = tested on: cyclophosphamide-induced pollakiuria rats; test: bladder capacity of cyclophosphamide-induced pollakiuria rats under urethane anesthesia (Experimental Example 1, NK-1 + NK-2 antagonist); assay type: in vivo; settings: for bladder capacity Before administration: cyclophosphamide 200 mg/kg i.p. the day before, baseline before i.v. drug; for bladder capacity Before administration / bladder capacity (%) increase / bladder capacity After administration: Compound No. 3 0.3 mg/kg, SR48968 10 mg/kg, mean ± standard error of 5-7 animals; for bladder capacity (%) increase / bladder capacity After administration: cyclophosphamide 200 mg/kg i.p., 10 min. after i.v. administration; for effect on bladder capacity (in words): cyclophosphamide-treated animals, i.v., sole vs combined administration at the doses of Table 1
Method: The effect afforded by the combined use of compound No. 3 and (±)SR48968 hydrochloride on the suppressive action on pollakiuria and urinary incontinence was shown by the ability to increase bladder capacity of cyclophosphamide-induced pollakiuria rats under a urethane anesthesia. Cyclophosphamide (200 mg/kg) or a solvent was intraperitoneally administered and the rats were subjected to the bladder capacity test the next day. […] The changes in the bladder capacity at 10 min. after administration were measured.
The data are expressed in mean±standard error.

[2] = tested on: cyclophosphamide-induced pollakiuria rats; test: bladder capacity of cyclophosphamide-induced pollakiuria rats under urethane anesthesia (Experimental Example 2, NK-1 antagonist + anti-cholinergic drug); settings: for bladder capacity Before administration: cyclophosphamide 200 mg/kg i.p. the day before, baseline before i.v. drug; for bladder capacity Before administration / bladder capacity (%) increase / bladder capacity After administration: Compound No. 3 0.3 mg/kg, oxybutynin chloride 1 mg/kg, mean ± standard error of 5-7 animals; for bladder capacity (%) increase / bladder capacity After administration: cyclophosphamide 200 mg/kg i.p., 10 min. after i.v. administration; for effect on bladder capacity (in words): cyclophosphamide-treated animals, i.v., sole vs combined administration at the doses of Table 2

Row | SMILES | bladder capacity Before administration [1] | bladder capacity (%) increase [1] | bladder capacity After administration [1] | effect on bladder capacity (in words) [1] | bladder capacity Before administration [2] | bladder capacity (%) increase [2] | bladder capacity After administration [2] | effect on bladder capacity (in words) [2]
1 | CC(=O)NC1(c2ccccc2)CCN(CC[C@H](CN(C)C(=O)c2ccccc2)c2ccc(Cl)c(Cl)c2)CC1 (racemic) [SR48968] | 0.99 ± 0.08 mL | 3.8 ± 3.3% | 1.03 ± 0.09 mL | does not increase the bladder capacity |  |  |  | 
2 | Cc1ccc(-c2c3n(c(=O)c4ncccc24)CC[C@@H](C)CN(Cc2cc(C(F)(F)F)cc(C(F)(F)F)c2)C3=O)cc1 [Compound No. 3, (9R)-7-[3,5-bis(trifluoromethyl)benzyl]-6,7,8,9,10,11-hexahydro-9-methyl-5-(4-methylphenyl)-6,13-dioxo-13H-[1,4]diazocino[2,1-g][1,7]naphthyridine] | 1.06 ± 0.14 mL | −0.28 ± 5.3% | 1.05 ± 0.14 mL | does not increase the bladder capacity | 0.66 ± 0.08 mL | 28.6 ± 12.4% | 0.80 ± 0.09 mL | does not increase the bladder capacity
3 | CCN(CC)CC#CCOC(=O)C(O)(c1ccccc1)C1CCCCC1 (stereo not shown) [oxybutynin chloride] |  |  |  |  | 0.76 ± 0.13 mL | 6.9 ± 12.4% | 0.78 ± 0.12 mL | does not increase the bladder capacity
